Measurements as given in patent US11130762B2, “Azaaryl derivative, preparation method therefor, and application thereof for use in pharmacy” (Abbisko Therapeutics Co., Ltd., priority 2017, dated 2021).
Like-named read-outs stand apart in the source and are kept apart here.

Tests used:
CSF-1R = CSF-1R (Homo sapiens, UniProt P07333); experiment: CSF-1R in vitro biochemical kinase study (ADP-Glo assay); details: 500 μM ATP, * = average of multiple tests, read-out: Enzymatic experiment CSF1R IC50
Method: A. CSF-1R In Vitro Biochemical Kinase Study
In the present invention, the inhibitory activity of compounds against the CSF-1R activity was determined by using CSF-1R ADP-Glo assay. The compound-mediated inhibition effect was achieved by inhibiting the production of ADP from consumption of ATP, and the activities of compounds were evaluated by using the ADP-Glo kit (Promega, cat. No. V9101). The specific experimental process was as follows:
1. The kinase reaction performed in the present invention was carried out in a 384-well plate (Perkinelmer, cat. No. 6007290), 3.95 nM of CSF-1R, 500 μM of ATP, and 0.2 mg/mL of polypeptide (Poly (Glu4, Try1), Sigma, cat. No. P0275) were respectively weighed and added to each well:
2. following reagents were then added to each well to reach the final reaction system: 40 mM Tris, pH 7.5, 20 mM MgCl2, 0.01% Triton X-100, 0.1 mg/mL BSA, 2.5 mM DTT, and 0.1% DMSO;
3. the reaction was conducted at 30° C. for 60 min;
4. then an equal volume of stop solution (ADP-Glo) was added to the kinase reaction system;
5. the mixed solution was incubated at 25° C. for 60 min, and the kinase reaction was then terminated;
6. a two-fold volume of detection reagent was then added to each well;
7. the mixed solution was incubated at 25° C. for 30 min;
8. the compound IC50 value was measured by using a plate reader (Tecan, M1000) and a four-parameter curve was generated in Graphpad Prism.

[1] = system: M-NFS-60 mouse myeloid leukemia lymphocytes; experiment: CSF-1R-related cell proliferation experiment (Cell Titer Glo), M-NFS-60 cells with M-CSF; type: cell-based; details: Lymphocyte, 72 h, 3 days, CTG, * = average of multiple tests
Method: C. CSF-1R-Related Cell Proliferation Experiment
Functional effects of compounds on cell proliferation were evaluated by using Cell Titer Glo (CTG) study in the present invention. M-NFS-60 mouse myeloid leukemia lymphocytes (cat. No. CCBJ078) from National Institutes For Food and Drug Control were cultured in the incubator under conditions of RPMI 1640 (Gibco, cat. No. 11875-119), 10% fetal bovine serum (Gibco, 10099-141), human 10 ng/mL M-CSF macrophage colony-stimulating factor (R&D, cat. No. MVN0915101), 37° C., and 5% CO2. Since ATP is an index for viable cell metabolism, CTG (Promega, #G7573) reagent is a homogeneous detection method for detecting the number of viable cells in the culture by quantifying ATP. Therefore, compound-mediated inhibition for cell proliferation/survival was evaluated by quantifying ATP content in cells, and the specific experimental process was as follows:
1. The cells were plated into a tissue-culture-medium-treated 96-well plate (Costar #3904) with 5,000 cells/well/80 μL fresh culture medium;
2. 24 hours later, 10 μL culture medium containing testing compound with 10-fold of final concentration was added to each well;
3. 10 μL of culture medium containing M-CSF with 10-fold of the final concentration was then added to each well;
4. dosage effect was evaluated by testing the 3-fold serial dilutions of the compound;
(§1) 5. after the cells were incubated for 3 days at 37° C. and 5% CO2, the inhibition on cell survival was quantified after 50 μL of CTG was added and the luminescence assay was performed;
(§2) 6. the compound concentration leading to half maximal inhibitory (IC50) and the compound concentration leading to absolute half maximal inhibitory (Absolute IC50) were measured by a plate reader (M1000, Tecan) and a four-parameter curve fit in Graphpad Prism 7.

[2] = system: M-07e human cytomegalic leukemia cells; experiment: Cell proliferation (Cell Titer Glo), M-07e cells with SCF (KIT); type: cell-based; details: 72 h, 3 days, CTG, * = average of multiple tests, read-out: Cytological experiment KIT IC50
Method: (§3) D. CSF-1R-Related Cell Proliferation Experiment
(§4) Functional effects of compounds on the proliferation of several cell lines were evaluated by Cell Titer Glo (CTG) studies in the present invention, and effects of the compounds on the proliferation of different cells were evaluated to determine the selectivity degree of the compounds. In the experiment, M-07e human cytomegalic leukemia cells (cat. No. CBP60791) from Nanjing Kebai Biotechnology Co., Ltd. were cultured in an incubator under conditions of RPMI1640 (Gibco, cat. No. 11875-119), 20% fetal bovine serum (Gibco, 10099-141), human 10 ng/mL GM-CSF granulocyte macrophage colony-stimulating factors (R&D, cat. No. 215-GM-010), 37° C., and 5% CO2; and Kasumi-1 human acute myeloblastic leukemia cells (cat. No. CBP60524) were cultured in an incubator under conditions of RPMI1640 (Gibco, cat. No. 11875-119), 20% fetal bovine serum (Gibco, 10099-141), 37° C., and 5% CO2: NCI-H1703 human non-small cell lung squamous carcinoma cells (cat. No. CBP60115) were cultured in an incubator under conditions of RPMI1640 (Gibco, cat. No. 11875-119), 10% fetal bovine serum (Gibco, 10099-141), 37° C., and 5% CO2; MV-4-11 human acute monocytic leukemia cells (cat. No. CBP60522) were cultured in an incubator under conditions of IMDM (Invitrogen, cat. No. 12440053), 20% fetal bovine serum (Gibco, 10099-141), 37° C., and 5% CO2. Since ATP is an index for viable cell metabolism, CTG (Promega, #G7573) reagent is a homogeneous detection method for detecting the number of viable cells in the culture by quantifying ATP. Therefore, compound-mediated inhibition for cell proliferation/survival was evaluated by quantifying ATP content in cells, and the specific experimental process was as follows.
I) M-07e Human Cytomegalic Leukemia Cell:
1. The cells were plated into a tissue-culture-medium-treated 96-well plate (Costar #3904) with 3500 cells/well/80 μL fresh culture medium, and cultured for 24 hrs;
(§5) 2. the next day, 10 μL of culture medium containing testing compound with 10-fold of final concentration was added to each well:
3. 10 μL of culture medium containing SCF recombinant human stem cell factor (R&D, cat. No. 7466-SC-010) with 10-fold of the final concentration was then added to each well;
4. the dosage effect was evaluated by testing 4-fold serial dilutions of the compound, which started from 18 μM;
as §1, §2

[3] = system: MV-4-11 human acute monocytic leukemia cells; experiment: Cell proliferation (Cell Titer Glo), MV-4-11 cells (FLT3); type: cell-based; details: MV4-11, 72 h, 3 days, CTG, * = average of multiple tests, read-out: Cytological experiment FLT3 IC50
Method: as §3, §4
III) MV-4-11 Human Acute Monocytic Leukemia Cell
1. The cells were inoculated into a tissue-culture-medium-treated 96-well plate (Costar #3904) with 5000 cells/well/90 μL fresh culture medium, and cultured for 24 hrs:
2. the next day, 10 μL of culture medium containing testing compound with 10-fold of final concentration was added to each well;
(§6) 3. the dosage effect was evaluated by testing 3-fold serial dilutions of the compound, which started from 18 μM;
4. after the cells were incubated for 3 days at 37° C. and 5% CO2, the inhibition on cell survival was quantified after 50 μL of CTG was added and the luminescence assay was performed;
(§7) 5. the compound concentration leading to half maximal inhibitory (IC50) and the compound concentration leading to absolute half maximal inhibitory (Absolute IC50) were measured by a plate reader (M1000, Tecan) and a four-parameter curve fit in Graphpad Prism 7.

[4] = system: NCI-H1703 human non-small cell lung squamous carcinoma cells; experiment: Cell proliferation (Cell Titer Glo), NCI-H1703 cells (PDGFRA); type: cell-based; details: 72 h, 3 days, CTG, * = average of multiple tests, read-out: Cytological experiment PDGFRA IC50
Method: as §3, §4
II) NCI-H1703 Human Non-Small Cell Lung Squamous Carcinoma Cell
1. The cells were inoculated into a tissue-culture-medium-treated 96-well plate (Costar #3904) with 5000 cells/well/90 μL fresh culture medium, and cultured for 24 hrs;
as §5, §6
4. after the cells were incubated for 3 days at 37° C. and 5% CO2, the inhibition on cell survival was quantified after 50 μL of CTG was added and the luminescence assay was performed:
as §7

[5] = read-out: Cytological experiment CSF1R IC50
[6] = absolute half maximal inhibition, read-out: Cytological experiment CSF-1R Absolute IC50

Chain of CSF-1R (P07333 20-972): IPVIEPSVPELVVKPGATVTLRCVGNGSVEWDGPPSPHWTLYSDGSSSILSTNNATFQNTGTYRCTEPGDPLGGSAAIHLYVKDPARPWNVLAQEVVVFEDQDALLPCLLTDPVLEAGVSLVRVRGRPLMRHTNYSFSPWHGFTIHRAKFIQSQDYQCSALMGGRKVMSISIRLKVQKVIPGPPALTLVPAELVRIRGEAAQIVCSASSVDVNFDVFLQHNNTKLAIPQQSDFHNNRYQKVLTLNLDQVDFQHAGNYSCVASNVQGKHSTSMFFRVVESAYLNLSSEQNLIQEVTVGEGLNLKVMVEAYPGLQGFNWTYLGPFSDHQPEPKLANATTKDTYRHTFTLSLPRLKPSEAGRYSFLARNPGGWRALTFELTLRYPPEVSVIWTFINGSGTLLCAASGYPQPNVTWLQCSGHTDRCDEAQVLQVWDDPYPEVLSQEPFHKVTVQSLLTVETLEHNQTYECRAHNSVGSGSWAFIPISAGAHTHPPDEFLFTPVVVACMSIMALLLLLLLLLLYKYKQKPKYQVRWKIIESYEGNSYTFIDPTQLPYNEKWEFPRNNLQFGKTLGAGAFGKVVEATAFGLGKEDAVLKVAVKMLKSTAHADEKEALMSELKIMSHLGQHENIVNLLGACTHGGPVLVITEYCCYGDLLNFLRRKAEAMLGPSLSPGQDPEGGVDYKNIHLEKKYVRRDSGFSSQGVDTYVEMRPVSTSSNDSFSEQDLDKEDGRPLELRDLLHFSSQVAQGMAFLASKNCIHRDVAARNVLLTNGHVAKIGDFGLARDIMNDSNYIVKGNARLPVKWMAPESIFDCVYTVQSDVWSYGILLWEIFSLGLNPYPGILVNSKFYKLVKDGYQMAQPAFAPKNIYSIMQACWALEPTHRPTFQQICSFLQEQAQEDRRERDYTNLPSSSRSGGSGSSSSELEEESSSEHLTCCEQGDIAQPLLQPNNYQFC

Row | Compound | IC50 (CSF-1R) | IC50 [1, 5] | IC50 [1, 6] | IC50 [2] | IC50 [3] | IC50 [4]
1 | CCCN1CCCn2c1ncc(-c1ccc(Oc3ccnc(-c4cnn(C)c4)c3)c(C)n1)c2=O [Example 11, 3-(6-methyl-5-((2-(1-methyl-1H-pyrazol-4-yl)pyridin-4-yl)oxy)pyridin-2-yl)-9-propyl-6,7,8,9-tetrahydro-4H-pyrimido [1,2-a]pyrimidin-4-one] | 0.319 µM | 0.222 µM | 0.273 µM | > 2 µM | > 6 µM | > 6 µM
2 | Cc1nc(-c2cnc3n(c2=O)CCC(C)N3C)ccc1Oc1ccnc(-c2cnn(C)c2)c1 (stereo not drawn) [Example 10, 8,9-dimethyl-3-(6-methyl-5-((2-(1-methyl-1H-pyrazol-4-yl)pyridin-4-yl)oxy)pyridin-2-yl)-6,7,8,9-tetrahydro-4H-pyrimido[1,2-a]pyrimidin-4-one] | 0.108 µM | 0.135 µM | 0.124 µM | > 18 µM | > 18 µM | > 18 µM
3 | Cc1nc(-c2cnc3n(c2=O)CCN3C)ccc1Oc1ccnc(-c2cnn(C)c2)c1 [Example 3, 1-methyl-6-(6-methyl-5-((2-(1-methyl-1H-pyrazol-4-yl)pyridin-4-yl)oxy)pyridin-2-yl)-2,3-dihydroimidazo[1,2-a]pyrimidin-5(1H)-one] | 0.157 µM | 0.249 µM | 0.185 µM | – | – | –
4 | Cc1nc(-c2cnc3n(c2=O)CC[C@@H](C)N3)ccc1Oc1ccnc(-c2cnn(C)c2)c1 [Example 6, (R)-8-methyl-3-(6-methyl-5-((2-(1-methyl-1H-pyrazol-4-yl)pyridin-4-yl)oxy)pyridin-2-yl)-6,7,8,9-tetrahydro-4H-pyrimido[1,2-a]pyrimidin-4-one] | 0.296 µM | > 2 µM | 0.71 µM | – | – | –
5 | Cc1nc(-c2cnc3n(c2=O)CC[C@@H]2CCCN32)ccc1Oc1ccnc(-c2cnn(C)c2)c1 [Example 12] | 0.107 µM | 0.0852 µM | 0.0778 µM | 0.755 µM | > 18 µM | > 2 µM

Compounds with a lower IC50 (CSF-1R), results first:

Row | IC50 (CSF-1R) | IC50 [1, 5] | IC50 [1, 6] | IC50 [2] | IC50 [3] | IC50 [4] | Compound
6 | 0.0842 µM | 0.498 µM | 0.488 µM | > 1.12 µM | > 18 µM | > 2 µM | Cc1nc(-c2cnc3n(c2=O)CCCN3C)ccc1Oc1ccnc(-c2cn[nH]c2)c1 [Example 7, 3-(5-((2-(1H-pyrazol-4-yl)pyridin-4-yl)oxy)-6-methylpyridin-2-yl)-9-methyl-6,7,8,9-tetrahydro-4H-pyrimido[1,2-a] pyrimidin-4-one]
7 | 0.0777 µM | 0.151 µM | 0.361 µM | – | – | – | CCn1cc(-c2cc(Oc3ccc(-c4cnc5n(c4=O)CCCN5C)nc3C)ccn2)cn1 [Example 8]
8 | 0.0683 µM | 0.0648 µM | 0.0589 µM | 0.321 µM | 2 µM | 1.58 µM | Cc1nc(-c2cnc3n(c2=O)CCCN3C2CCC2)ccc1Oc1ccnc(-c2cnn(C)c2)c1 [Example 9, 9-cyclobutyl-3-(6-methyl-5-((2-(1-methyl-1H-pyrazol-4-yl)pyridin-4-yl)oxy)pyridin-2-yl)-6,7,8,9-tetrahydro-4H-pyrimido[1,2-a]pyrimidin-4-one]
